How the values were obtained:
[1] = test system: NRAS mutant melanoma cells; assay: Telomere length assay (TRF Southern blotting); assay type: cell-based, Human; conditions: 1 μM 6-thio-dG for 14 days
Description: (§1) FIGS. 2a to 2c show NRAS^mut melanoma cells (FIG. 2a), BRAF-V600E/NRAS mutant cells derived from melanoma patients resistant to BRAF/MEK inhibitors (FIG. 2b), or non-transformed melanocytes and fibroblasts (FIG. 2c) were treated with 6-thio-dG for 7 days. Cell viability was measured by Alamar Blue assay and calculated relative to DMSO-treated cells. […] Cell death was assessed by PSVUe staining. Percent of apoptotic cells is shown. […] Mean TRF length expressed as kilobase pairs is indicated at the bottom. […] FIG. 2g provides a bar graph showing that DNA damage was assessed by γH2AX staining. Data represent average from three independent experiments ±SEM. *p<0.05; **p<0.01; ***p<0.005 in unpaired Student's t-test. As presented in FIG. 2h, mice bearing established WM3000 or M93-047 NRAS^mut tumors were treated with vehicle control or 6-thio-dG (2.5 mg/kg i.p; q.d). Tumor volume was measured and average tumor volume (n=4) ±SEM was plotted vs. time.
Genomic DNA was prepared using Wizard genomic DNA purification kit (Promega) following manufacturer's instruction. […] The images were analyzed with Phosphorimager, visualized by Typhoon 9410 Imager (GE Healthcare), and processed with ImageQuant 5.2 software (Molecular Dynamics).

[2] = test system: detoxifying enzymes SOD2, GPX1 and UCP2; assay: mRNA levels of antioxidant enzymes by qRT-PCR; assay type: cell-based, Human; conditions: NRAS mutant melanoma cells, 1 μM 6-thio-dG for 7 days
Description: (§2) FIGS. 3a to 3g provides graphs showing that telomere dysfunction enhances oxidative stress leading to upregulation of an antioxidant program. […] Mitochondrial superoxide production was measured by MitoSox Red fluorescence (FIGS. 3c, and 3d) and expressed as fluorescence relative to vector or DMSO controls. […] FIG. 3f provides a bar graph showing that SOD2 was silenced using shRNA. Transduced M93-047 cells were treated with DMSO or 1 μM of 6-thio-dG and cell death was assessed by Annexin V/PI straining. As presented in FIG. 3g, M93-047 cells were transduced with a SOD2 lentiviral construct or empty vector control (pLX304). Transduced cells were treated with increasing doses (1, 2.5 and 5 μM) of 6-thio-dG for 7 days and cell death was assessed. Data represent average from three independent experiments ±SEM. *p<0.05; **p<0.01; ***p<0.005 in unpaired Student's t-test.
Total RNA (1 μg) was reverse transcribed using Maxima First-Strand cDNA synthesis kit (Thermo Scientific, Waltham, Mass.). Fast SYBR Green Master Mix (Applied Biosystems, Waltham, Mass.) was used with 100 ng cDNA template and 250 nM primers for the evaluation of target gene expression. Amplification was performed in triplicate using ABI PRISM 7500 Fast RT PCR System (Applied Biosystems, Waltham, Mass.) and expression of mRNA was assessed using the […].

[3] = test system: NRAS mutant melanoma cells; assay: Cell death by flow cytometry (PSVue or Annexin V/PI); assay type: cell-based, Human
Description: as §1, §2
FIGS. 4a to 4e provides bar graphs showing that induction of telomere and mitochondrial dysfunction triggers cell death in NRAS mutant melanoma. […] Cell death was assessed by Annexin V and PI staining. […] Cells were stained with Annexin V and PI and percent cell death was determined by flow cytometry. […] P values were calculated using unpaired Student's t-test; * p<0.05; *** p<0.005.
As presented in FIG. 16a, SOD2 was silenced using shRNA. Transduced WM3000 cells were treated with DMSO or 1 μM of 6-thio-dG and cell death was assessed by Annexin V/PI straining. […] Transduced cells were treated with increasing doses (1, 2.5 and 5 μM) of 6-thio-dG for 10 days and cell death was assessed. […]
In FIG. 17a, NRAS^mut melanoma cells were treated with 6-thio-dG (1 μM) for 7 days total. […] Percent cell death was determined by flow cytometry following staining of cells with Annexin V and Propidium iodide. […]

[4] = mice; cited from earlier work

Nc1nc2c(ncn2[C@H]2C[C@H](O)[C@@H](CO)O2)c(=S)[nH]1 [6-thio-dG, 6-thio-2′-deoxyguanosine]
telomere length (mean TRF) [1]: without evidence for significant telomere shortening
GPX1 mRNA levels [2]: upregulation
SOD2 mRNA levels [2]: upregulation
UCP2 mRNA levels [2]: upregulation
cell death (PSVue staining) ([3]; 1 or 5 μM 6-thio-dG for 7 or 14 days): led to cell death after 7-14 days
apoptosis / cell death ([3]; SOD2 overexpression, 1, 2.5 and 5 μM 6-thio-dG for 7 or 10 days, M93-047, WM3000): attenuated the apoptosis-inducing effects
apoptosis / cell death (Annexin V/PI) ([3]; SOD2 silenced by shRNA, 1 μM 6-thio-dG, M93-047, WM3000): enhanced the ability of 6-Thio-dG to induce apoptosis
effect on alanine aminotransferase (ALT) [4]: no significant effects
effect on aspartate aminotransferase (AST) [4]: no significant effects
effect on creatinine levels [4]: no significant effects
effect on red blood cells [4]: no significant effects
effect on white blood cells [4]: no significant effects
